Numbers after ± are expanded uncertainties.
Key:
[1] = Molar enthalpy of transition or fusion; conditions: Crystal; DSC
[2] = Crystal; DTA

Clc1ccc2c(c1)Nc1ccccc1S2 [2-chlorophenothiazine]
Molar enthalpy of transition or fusion [1]: 5.16 ± 0.22 kcal/mol | Normal melting temperature [2]: 199.80 ± 1.1 °C

Reference: the NIST ThermoML archive (doi:10.1016/j.jct.2016.11.029)
